Patent US12692274B2, “Tetrahydroisoquinoline derivatives for the treatment of red blood disorders and inflammatory diseases” (Sanofi, priority 2020, dated 2026)
Values joined by “and” are separate entries in the source; they are usually repeats but may differ in a detail not shown here. Identical values can stand only once.

Columns and labels:
[1] = test system: NQO1 activation in BEAS-2B cells; assay: BEAS-2B cellular MTT assay of NQO1 activation, 0% HSA; type: cell-based
Procedure, shortened: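 BEAS-2B cells grown in BEBM with BEGM SingleQuots (no GA-1000), kept below 70% confluence, seeded on collagen plates at a density giving 95-100% confluence after 48 h. Plates seeded in medium without HSA (0% HSA condition).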

[2] = test system: NQO1 activation in BEAS-2B cells; assay: BEAS-2B cellular MTT assay of NQO1 activation, 0.3% HSA; type: cell-based
Procedure, shortened: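 BEAS-2B cells (<70% confluent in culture, BEBM/SingleQuots without GA-1000) seeded in collagen plates with 0.3% or 0% HSA, reaching 95-100% confluency after 48 h at 37 °C, 5% CO2; MTT read-out.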

[3] = biological target: HIS-Keap1 full length / Biotin-Nrf2 (16-mer) (Homo sapiens, UniProt Q14145); assay: biochemical
[4] = Homo sapiens, Serum Free W, read-out: BEAS EC50 (nM) Serum Free W
[5] = Serum Free W, read-out: BEAS EC50 (nM) Serum Free W
[6] = BEAS+ W, read-out: BEAS+ W EC50
[7] = Homo sapiens, BEAS+ W, read-out: BEAS+ W EC50
[8] = Homo sapiens, serum free, read-out: BEAS EC50 (nM) serum free
[9] = serum free, read-out: BEAS EC50 (nM) serum free
[10] = Homo sapiens, BEAS+, read-out: BEAS+ EC50

Sequence of HIS-Keap1 full length / Biotin-Nrf2 (16-mer) (Q14145 whole entry): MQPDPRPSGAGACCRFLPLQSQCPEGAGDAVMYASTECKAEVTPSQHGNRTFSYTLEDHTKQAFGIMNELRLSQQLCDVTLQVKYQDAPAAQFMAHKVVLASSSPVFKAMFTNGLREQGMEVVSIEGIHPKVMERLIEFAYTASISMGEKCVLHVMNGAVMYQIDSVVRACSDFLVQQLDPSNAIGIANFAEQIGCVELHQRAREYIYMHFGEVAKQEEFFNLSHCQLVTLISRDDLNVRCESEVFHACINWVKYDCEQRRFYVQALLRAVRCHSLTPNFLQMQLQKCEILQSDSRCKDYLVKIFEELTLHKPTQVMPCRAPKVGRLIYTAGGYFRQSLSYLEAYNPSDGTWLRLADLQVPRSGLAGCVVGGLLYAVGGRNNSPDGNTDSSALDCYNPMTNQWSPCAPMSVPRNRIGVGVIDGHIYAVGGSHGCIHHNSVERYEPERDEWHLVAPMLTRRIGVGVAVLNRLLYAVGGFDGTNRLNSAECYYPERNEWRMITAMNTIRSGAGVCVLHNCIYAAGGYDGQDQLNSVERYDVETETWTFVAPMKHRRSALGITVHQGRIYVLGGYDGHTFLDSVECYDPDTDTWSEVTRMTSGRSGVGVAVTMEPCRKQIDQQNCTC

| Structure (SMILES) | EC50 [1, 4] [nM] | EC50 [1, 5] | EC50 [2, 6] | EC50 [2, 7] [nM] | IC50 [3] | EC50 [1, 8] [nM] | EC50 [1, 9] | EC50 ([2]; BEAS+, read-out: BEAS+ EC50) | EC50 [2, 10] [nM] |
| --- | --- | --- | --- | --- | --- | --- | --- | --- | --- |
| Cc1cc2ncc1[C@H]([C@@H](C)C(=O)O)c1ccc3c(c1)CN(CC3)C(=O)c1ccc(cc1)CCCCCO2 [Compound 75] | 9.1 | 16 nM | 60 nM | 45.2 | 21.7 nM and 22.7 nM |  |  |  |  |
| Cc1c2ccc3c1nnn3CCCCOCc1ccc(c(F)c1)C(=O)N1CCc3ccc(cc3C1)C2CC(=O)O (stereo not shown) [Compound 387] |  |  |  |  | 1.5 nM and 1.7 nM | 95.9 | 75.2 nM | 90.3 nM | 62.6 |
| Cn1c2cc3cc(cnc31)CCCCCOc1ccc(cn1)C(CC(=O)O)c1ccc3c(c1)CN(CC3)C2=O (racemic) [Compound 158, 2-(33-methyl-2-oxo-15-oxa-1,7,17,33-tetrazahexacyclo[19.5.3.216,19.13,6.15,9.024,28]tritriaconta-3,5,7,9(32),16,18,21(29),22,24(28),30-decaen-20-yl)acetic Acid] |  |  |  |  | 3.6 nM and 3.2 nM | 18.2 | 22.1 nM | 400 nM | 403 |
| Cc1c2ccc3c1nnn3CCCCCCc1ccc(cc1)C(=O)N1CCc3ccc(cc3C1)C2CC(=O)O (stereo not shown) [Compound 307] |  |  |  |  | 0.2 nM | 0.4 |  | 5.2 nM | 3.7 |
| Cc1cc2cc3c1CCN(C3)C(=O)c1ccc(cc1)CCCCCCn1nnc3c(C)c(cnc31)[C@@H]2CC(=O)O [Compound 92] | 23.6 | 24.8 nM | 141 nM | 115 | 4.6 nM and 3.9 nM |  |  |  |  |
| O=C(O)CC1c2ccc(nc2)OCCCCOc2ccc(cc2Cl)C(=O)N2CCc3ccc1cc3C2 (stereo not shown) [Compound 212] |  |  |  |  | 7.7 nM and 5.7 nM | 190 | 254 nM | 811 nM | 606 |
| Cc1nc2ccc1C(CC(=O)O)c1ccc3c(c1)CN(CC3)C(=O)c1c(F)cc(cc1F)OCCCCO2 (stereo not shown) [Compound 180] |  |  |  |  | 253 nM and 296 nM | 701 | 878 nM | 1000 nM | 1300 |
| Cc1cc2ccc1C(=O)N1CCc3ccc(cc3C1)C(CC(=O)O)c1ccc(nc1C)OCCCCO2 (stereo not shown) [Compound 178] |  |  |  |  | 113 nM and 105 nM | 1160 | 1140 nM | 933 nM | 1410 |
| CC(C)(C(=O)O)[C@@H]1c2ccc3c(c2)CN(CC3)C(=O)c2c(F)cc(cc2F)OCCCCCCn2nnc3cc1ccc32 [Compound 236] |  |  |  |  | 51 nM and 44.4 nM and 44.6 nM | 62.7 | 50.3 nM and 82.1 nM and 84.7 nM | 248 nM and 220 nM and 190 nM | 286 |
| Cc1cc2ccc1OCCCCCn1nnc3c(C)c(ccc31)C(CC(=O)O)c1ccc3c(c1)CN(CC3)C2=O (stereo not shown) [Compound 261] |  |  |  |  | 3 nM | 89.8 | 93 nM | 113 nM | 198 |
| Cc1c2ccc3c1nnn3CCOCCCc1ccc(c(F)c1)C(=O)N1CCc3ccc(cc3C1)[C@@H]2CC(=O)O [Compound 364] | 56 | 68.3 nM | 92.6 nM | 98.8 | 1.7 nM and 1.6 nM |  |  |  |  |
| C[C@@H](C(=O)O)[C@H]1c2ccc3c(c2)CN(CC3)C(=O)c2ccc(cc2)OCCCCCn2nnc3cc1ccc32 [Compound 232] |  |  |  |  | 1.4 nM | 7.2 | 4.6 nM | 8.3 nM | 9 |
| O=C(O)CC1c2ccc3c(c2)CN(CC3)C(=O)c2ccc(cc2)CCCCCCn2nnc3cc1ccc32 (stereo not shown) [Compound 280] |  |  |  |  | 2.3 nM (2×) and 2.8 nM (2×) | 108 |  |  | 114 |
| Cc1cc2ccc1C(=O)N1CCc3ccc(cc3C1)C(CC(=O)O)c1ccc(nc1)OCCCCCCO2 (stereo not shown) [Compound 301] |  |  |  |  | 6.8 nM and 6 nM | 80.6 | 144 nM | 214 nM | 317 |
| O=C(O)C[C@@H]1c2cnc(nc2)OCC/C=C/Cc2c(F)c(F)c(c(F)c2F)C(=O)N2CCc3ccc1cc3C2 [Compound 40] | > 1000 |  |  | 3580 | 46.2 nM and 53.6 nM |  |  |  |  |
| Cc1c2cnc3c1nnn3CCCCCCc1ccc(cc1)C(=O)N1CCc3ccc(cc3C1)[C@H]2CC(=O)O [Compound 140] |  |  |  |  | 0.3 nM and 0.5 nM | 11.6 | 8.8 nM | 27.3 nM | 30.4 |

| Structure (SMILES) | EC50 [1, 4] [nM] | EC50 [1, 5] | EC50 [2, 6] | EC50 [2, 7] [nM] | IC50 [3] | EC50 [1, 8] [nM] | EC50 [1, 9] | EC50 ([2]; BEAS+, read-out: BEAS+ EC50) | EC50 [2, 10] [nM] |
| --- | --- | --- | --- | --- | --- | --- | --- | --- | --- |
| Cc1cc2cc3c1CCN(C3)C(=O)c1ccc(cc1)CCCCCCn1nnc3c(C)c(cnc31)C2CC(=O)O (stereo not shown) [Compound 106] | 4.5 | 5.6 nM | 44.8 nM | 35.5 | 0.9 nM and 0.7 nM |  |  |  |  |
| Cc1c2cnc3c1nnn3CCCCCc1ccc(cc1)C(=O)N1CCc3ccc(cc3C1)[C@@H]2CC(=O)O [Compound 124] | 7.6 | 7.3 nM | 12.5 nM | 9 | 0.6 nM |  |  |  |  |
| Cc1c2cnc3c1nnn3CCCCCCc1ccc3c(c1)cc(n3C)C(=O)N1CCc3ccc(cc3C1)C2CC(=O)O (stereo not shown) [Compound 135] | 1.9 | 1.8 nM | 11.8 nM | 18.9 | 0.9 nM and 1.2 nM |  |  |  |  |
| Cc1c2ccc3c1nnn3CCCCCc1ccc3c(c1)cc(n3C)C(=O)N1CCc3ccc(cc3C1)[C@H]2[C@H](C)C(=O)O [Compound 114] | 0.1 | 0.2 nM | 8.2 nM | 9.8 | 0.4 nM |  |  |  |  |
| O=C(O)CC1c2ccc3c(c2)CN(CC3)C(=O)c2c(F)cc(cc2F)OCCCCCCn2nnc3cc1ccc32 (stereo not shown) [Compound 321] |  |  |  |  | 0.4 nM and 0.1 nM | 75.7 |  |  | 88.9 |
| O=C(O)CC1c2ccc(nc2)OCCCCCc2cnc(c(F)c2)C(=O)N2CCc3ccc1cc3C2 (stereo not shown) [Compound 194] |  |  |  |  | 24.3 nM and 22.9 nM | 870 | 1100 nM | 829 nM | 1080 |
| COc1cc2ccc1CCCCCn1nnc3c(C)c(cnc31)C(CC(=O)O)c1ccc3c(c1)CN(CC3)C2=O (stereo not shown) [Compound 165] |  |  |  |  | 1.7 nM and 1.6 nM | 11.7 | 13.3 nM | 21.1 nM | 26 |
| Cc1c2ccc3c1nnn3C/C=C/COCc1ccc(c(F)c1)C(=O)N1CCc3ccc(cc3C1)C2CC(=O)OCCO (stereo not shown) [Compound 361] | > 1000 |  | 1280 nM | 1660 | 918 nM and 740 nM |  |  |  |  |
| Cc1c2ccc3c1nnn3CCCCCCc1ccc3c(c1)cc(n3CC(F)F)C(=O)N1CCc3ccc(cc3C1)[C@@H]2CC(=O)O [Compound 39] | 5.9 | 4.2 nM and 4.3 nM | 531 nM and 590 nM | 492 | 1 nM and 1.1 nM |  |  |  |  |
| Cc1cc2cc(C)c1C(=O)N1CCc3ccc(cc3C1)C(CC(=O)O)c1ccc3c(c1)nnn3CCCCCCO2 (stereo not shown) [Compound 293] |  |  |  |  | < 0.1 nM | 141 |  |  | 208 |
| Cc1c2ccc3c1nnn3CCCCCCc1cc(F)c(c(F)c1)C(=O)N1CCc3ccc(cc3C1)C2CC(=O)O (stereo not shown) [Compound 253] |  |  |  |  | 1.3 nM | 5.4 |  |  | 6.6 |
| O=C(O)CC1c2ccc3c(c2)CN(CC3)C(=O)c2ccc(c(F)c2F)OCCCCCCn2nnc3cc1ccc32 (stereo not shown) [Compound 320] |  |  |  |  | < 0.1 nM | 332 |  |  | 462 |
| Cc1cc2ccc1C(=O)N1CCc3ccc(cc3C1)[C@H](CC(=O)O)c1cnc(cc1C)OCCCCC2 [Compound 99] | 23.9 | 25.6 nM | 79 nM | 108 | 8.8 nM and 8.4 nM |  |  |  |  |
| Cc1c2ccc3c1nnn3CCCCCn1cc(c3ccccc31)C(=O)N1CCc3ccc(cc3C1)C2CC(=O)O (stereo not shown) [Compound 372] |  |  |  |  | 0.2 nM | 994 | 1020 nM | 861 nM | 1630 |
| Cc1c2ccc3c1nnn3CCCCc1ccc3c(cn(C)c3c1)C(=O)N1CCc3ccc(cc3C1)C2CC(=O)O (stereo not shown) [Compound 359] | > 1000 |  |  | > 10000 | 7.4 nM and 8.1 nM |  |  |  |  |
